Columns and labels:
[1] = cited from earlier work
[2] = OCA treatment, clinical studies; cited from earlier work
FXR LBD, GST = molecular target: T1, FXR LBD, GST (Homo sapiens, UniProt Q96RI1); assay: FXR Binding Assay (TR-FRET, Fluorescein-SRC2-2 coactivator peptide); details: for EC50: TR-FRET FXR LBD coactivator recruitment; for Emax: read-out: Pct Effect (Emax %)
T1 construct: FXR LBD, GST; purchased Invitrogen PV4834
T1 sequence (Q96RI1 262-486 limits assumed): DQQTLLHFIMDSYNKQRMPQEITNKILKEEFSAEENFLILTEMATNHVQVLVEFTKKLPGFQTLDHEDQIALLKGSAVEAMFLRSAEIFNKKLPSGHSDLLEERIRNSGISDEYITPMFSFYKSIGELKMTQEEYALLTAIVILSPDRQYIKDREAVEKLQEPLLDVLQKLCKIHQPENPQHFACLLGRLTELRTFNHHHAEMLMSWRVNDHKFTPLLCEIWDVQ

[3] = molecular target: T2, hFXR-LBD (FXR-GAL4 chimeric receptor) (Homo sapiens, UniProt Q96RI1); assay: FXR Transactivation Assay (GAL4 luciferase reporter in HEK293T cells); type: cell-based
T2 construct: host or cells: HEK293T
T2 sequence (Q96RI1 262-486 limits assumed): T1 sequence (Q96RI1 262-486 limits assumed)
Description: FXR Transactivation Assay
The present compounds were tested to assess their ability to stimulate FXR transactivation activity. The hFXR-LBD, coding sequence was inserted into the pBIND expression vector (Promega, E1581) to express FXR-GAL4 binding domain chimeric receptors. This expression vector and reporter vector (pGL4.35 which carry a stably integrated GAL4 promoter driven luciferase reporter gene) were co-transfected into HEK293T host cells. Upon agonist binding to the corresponding FXR-GAL4 chimeric receptor, the chimeric receptor binds to the GAL4 binding sites and stimulates the reporter gene.
All the working stock were shake for 5 min on plate shaker (QILINBEIER). Second, all cells were cultured as ATCC recommended. HEK293T cells were assayed in exponential growth phase. Removed culture medium from the flask and rinsed cells with PBS. Added TrypLE solution to the flask and make cells detach. Next, cells were washed once with complete growth medium. Then, cells were pelleted and washed twice with PBS to remove phenol red and resuspend them in medium to a proper concentration. Only cells with viability greater than 90% were used for assays. Seeded 6×10^6 HEK293T cells into a 100 mm dish and incubated at 37° C. under 5% CO2 atmosphere for 16 h. Third, Trans-IT reagent and Opti-MEM mix by inversion and incubate 5 min at room temperature. The cell transfection was performed by mixing DNA and the reagent mixture, as well as 6 μg GAL4-FXR plasmid or 2 μg pGL4.35 luciferase plasmid, respectively. The reagent mixture was added to a 100 mm dish and incubated for 4-7 hrs at 37° C. under 5% CO2 atmosphere. Fourth, transferred 75 nl compound dilutions into 384-well assay plates (PerkinElmer) and seeded HEK293T cells at 17,000 cells/well using phenol red-free DMEM containing 5% charcoal/dextran-treated FBS. Then, cells were incubated for 16-20 h at 37° C. under 5% CO2 atmosphere. Finally, added 25 μl Steady-Glo™ Luciferase Assay Reagent into each well of 384-well assay plate, and then shake plate for 5 min protected from light on a plate shaker. Then, the luminescence value was read on Evision 2104 plate reader (PerkinElmer).
The activity ratio was calculated as follow: […]
RLU: Resulting Luminescence
RLUpositive: The average RLU for the positive controls across the plate.
RLUvehicle: The average RLU for negative controls across the plate.
EC50 was calculated by fitting % Activity values and log of compound concentrations to nonlinear regression (dose response-variable slope) with GraphPad 5.0.
X: log of compound concentration.

[4] = preclinical species; cited from earlier work
other nuclear receptor = details: cited from earlier work
FXR = molecular target: T3, FXR (Homo sapiens, UniProt Q96RI1); details: cited from earlier work
T3 sequence (Q96RI1 1-486): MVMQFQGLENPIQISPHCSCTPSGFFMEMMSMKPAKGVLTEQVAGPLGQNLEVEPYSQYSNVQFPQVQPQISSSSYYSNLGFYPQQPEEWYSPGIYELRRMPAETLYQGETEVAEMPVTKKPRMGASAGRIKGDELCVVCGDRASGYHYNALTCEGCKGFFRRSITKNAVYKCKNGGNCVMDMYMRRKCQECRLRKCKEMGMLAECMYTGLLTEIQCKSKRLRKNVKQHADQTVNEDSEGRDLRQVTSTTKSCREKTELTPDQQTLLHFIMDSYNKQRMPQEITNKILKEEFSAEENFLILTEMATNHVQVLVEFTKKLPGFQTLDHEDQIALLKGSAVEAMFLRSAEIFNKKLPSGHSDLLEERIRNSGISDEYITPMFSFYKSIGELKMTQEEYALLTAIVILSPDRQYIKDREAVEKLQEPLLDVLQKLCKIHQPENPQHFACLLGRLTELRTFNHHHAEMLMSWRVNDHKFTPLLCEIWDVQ

[5] = in vivo; cited from earlier work
[6] = % Activity relative to positive control

SMILES | EC50 (FXR LBD, GST) | EC50 [3] | Emax (FXR LBD, GST; [6]) | further results
O=C(O)c1cc(F)c2nc(N3[C@@H]4CC[C@H]3C[C@@H](OCc3c(-c5ccccc5OC(F)(F)F)noc3C3CC3)C4)sc2c1 [LJN452] | – | – | – | drug-related pruritus ([1]; after multiple doses): No drug-related pruritus was observed; ALT/AST ([1]; individual subjects): ALT/AST increased in individual subjects; drug-related adverse reactions ([1]; single dose of up to 3 mg): No drug-related adverse reactions were observed; safety and tolerability ([1]; single dose of up to 3 mg): performed well in safety and tolerability
CC[C@H]1[C@@H](O)[C@@H]2[C@H](CC[C@]3(C)[C@@H]([C@H](C)CCC(=O)O)CC[C@@H]23)[C@@]2(C)CC[C@@H](O)C[C@@H]12 [OCA, 6α-ethyl-chenodeoxycholic acid] | – | – | – | pruritus [2]: may be associated with increased pruritus
Cn1cc(C(=O)O)c2cc(F)c(N3CCN(CCc4c(-c5c(Cl)cccc5Cl)noc4C4CC4)CC3)cc21 [Example I45, 6-(4-(2-(5-cyclopropyl-3-(2,6-dichlorophenyl)isoxazol-4-yl)ethyl)piperazin-1-yl)-5-fluoro-1-methyl-1H-indole-3-carboxylic Acid] | 72 nM | 224 nM | – | Pct Effect (Emax %) (FXR LBD, GST; [6]): 161.70%
Cn1cc(C(=O)O)c2ccc(N3CCN(CCc4c(-c5c(Cl)cccc5Cl)noc4C4CC4)CC3)cc21 [Example I1, 6-(4-(2-(5-cyclopropyl-3-(2,6-dichlorophenyl)isoxazol-4-yl)ethyl)piperazin-1-yl)-1-methyl-1H-indole-3-carboxylic Acid] | 58 nM | 101 nM | 161% | –
Cn1cc(C(=O)O)c2ccc(N3CCC(OCc4c(-c5c(Cl)cccc5Cl)noc4C4CC4)CC3)cc21 [LY-2562175] | – | – | – | effect on LDL, triglycerides and HDL [4]: lowered LDL and triglycerides while raising HDL; transcriptional activation of other nuclear receptor (other nuclear receptor): didn't promote transcriptional activation of other nuclear receptor
CC1CN(c2ccc3c(C(=O)O)cn(C)c3c2)CCN1CCc1c(-c2c(Cl)cccc2Cl)noc1C1CC1 (stereo not drawn) [Example I8, 6-(4-(2-(5-cyclopropyl-3-(2,6-dichlorophenyl)isoxazol-4-yl)ethyl)-3-methylpiperazin-1-yl)-1-methyl-1H-indole-3-carboxylic Acid] | 94 nM | 138 nM | 202% | –
CC(C)c1onc(-c2c(Cl)cccc2Cl)c1COc1ccc(/C=C/c2cccc(C(=O)O)c2)c(Cl)c1 [GW4604] | – | – | – | agonistic activity to FXR (FXR): strong agonistic activity; bioavailability [5]: low bioavailability
Cn1cc(C(=O)O)c2ccc(N3CCCN(CCc4c(-c5c(Cl)cccc5Cl)noc4C4CC4)CC3)cc21 [Example I7, 6-(4-(2-(5-cyclopropyl-3-(2,6-dichlorophenyl)isoxazol-4-yl)ethyl)-1,4-diazepan-1-yl)-1-methyl-1H-indole-3-carboxylic Acid] | 25 nM | 743 nM | 98.1% | –
